In patent US6444617B1, “Fused-heterocycle dicarboxylic acid diamide derivatives or salts thereof, herbicide and usage thereof” (Nihon Nohyaku Co., Ltd., priority 1998, dated 2002):

Tests used:
Format in all cases: in vivo
[1] = tested on: forxtail grass (Alopecurus aequalis var. amurensis Ohwi), Am; assay: Test Example 3: herbicidal effect on upland weeds before emergence; details: foxtail grass, dosage 5 kg/ha
Outline: (§1)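 Herbicidal activity was rated from kill rate determined 14 days post-spray, the compound having been applied pre-emergence as a liquid agent.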

[2] = tested on: bird's eye speedwell (Veronica persica Poir.), Vp; assay: as above; details: dosage 5 kg/ha
Outline: as §1

[3] = tested on: barnyard grass (Echinochloa crus-galli Beauv.), Ec; assay: as above; details: dosage 5 kg/ha
Outline: as §1

[4] = tested on: cleavers (Galium aparine L.), Ga; assay: as above; details: dosage 5 kg/ha
Outline: as §1

[5] = tested on: velvetleaf (Abutilon theophtasti L.), At; assay: as above; details: dosage 5 kg/ha
Outline: as §1

[6] = tested on: cocklebur (Xanthium strumarium L.), Xs; assay: as above; details: dosage 5 kg/ha
Outline: as §1

[7] = tested on: bulrush (Scirpus juncoides Roxb.); assay: Test Example 2: herbicidal effect on paddy field weeds after emergence; details: Dosage 5 kg/ha; one-leaved stage; 21 days after treatment
Outline: (§2)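 Weeds in flooded paddy-soil pots were grown to the one-leaved stage, then the soil was treated with the compound solution at a set dosage.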

[8] = tested on: monochoria (Monochoria vaginalis Presl); assay: as above; details: Dosage 5 kg/ha; one-leaved stage; 21 days after treatment
Outline: as §2

[9] = tested on: barnyard grass (Echinochloa crus-galli Beauv.); assay: as above; details: Dosage 5 kg/ha; one-leaved stage; 21 days after treatment
Outline: as §2

[10] = tested on: bulrush (Scirpus juncoides Roxb.); assay: Test Example 1: herbicidal effect on paddy field weeds before emergence; details: Dosage 5 kg/ha
Outline: (§3)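 Seeds of both weeds, still ungerminated, in soil pots held under paddy conditions received a set dose of test solution as soil treatment. After twenty-one days, control relative to untreated pots was calculated and rated on a scoring scale.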

[11] = tested on: barnyard grass (Echinochloa crus-galli Beauv.); assay: as above; details: Dosage 5 kg/ha
Outline: as §3

soybean plant (So) = assay: Test Example 3: phytotoxicity to upland crop plants, treatment before emergence; details: dosage 5 kg/ha
Outline: (§4)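 Pre-emergence spray of a liquid preparation at a prescribed compound concentration. Soybean and wheat injury was scored against a phytotoxicity criterion 14 days after treatment, alongside weed control.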

wheat (Wh) = assay: as above; details: dosage 5 kg/ha
Outline: as §4

[12] = tested on: forxtail grass (Alopecurus aequalis var. amurensis Ohwi), Am; assay: Test Example 4: herbicidal effect on upland weeds after emergence; details: dosage 5 kg/ha; sprayed after emergence; judged 14 days after treatment
Outline: (§5)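 Weeds and soybean grown in soil-filled vats to set leaf stages, then sprayed post-emergence with the compound at a prescribed concentration. Weed-killing rate and crop phytotoxicity judged 14 days after treatment.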

[13] = tested on: bird's eye speedwell (Veronica persica Poir.), Vp; assay: as above; details: dosage 5 kg/ha; sprayed after emergence; judged 14 days after treatment
Outline: as §5

[14] = tested on: barnyard grass (Echinochloa crus-galli Beauv.), Ec; assay: as above; details: dosage 5 kg/ha; sprayed after emergence; judged 14 days after treatment
Outline: as §5

[15] = tested on: cleavers (Galium aparine L.), Ga; assay: as above; details: dosage 5 kg/ha; sprayed after emergence; judged 14 days after treatment
Outline: as §5

[16] = tested on: velvetleaf (Abutilon theophtasti L.), At; assay: as above; details: dosage 5 kg/ha; sprayed after emergence; judged 14 days after treatment
Outline: as §5

[17] = tested on: cocklebur (Xanthium strumarium L.), Xs; assay: as above; details: dosage 5 kg/ha; sprayed after emergence; judged 14 days after treatment
Outline: as §5

soybean plant = assay: Test Example 4: phytotoxicity to upland crop plants, treatment after emergence; details: dosage 5 kg/ha, sprayed after emergence, judged 14 days after treatment
Outline: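 Post-emergence foliar spray at a prescribed concentration, applied once the sown weeds and soybean reached defined leaf stages in soil vats; herbicidal effect and soybean injury scored after 14 days.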

wheat = assay: as above; details: dosage 5 kg/ha, sprayed after emergence, judged 14 days after treatment
Outline: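 Upland weeds and crop plants (soybean, wheat) are grown from seed in soil until they reach given leaf stages, then treated by spraying with the compound-containing agent; effects are judged two weeks later.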

| SMILES | Herbicidal effect Am [1] | Herbicidal effect Vp [2] | Herbicidal effect Ec [3] | Herbicidal effect Ga [4] | Herbicidal effect At [5] | Herbicidal effect Xs [6] | Post-emergence treatment Bulrush (herbicidal effect) [7] | Post-emergence treatment Monochoria (herbicidal effect) [8] | Post-emergence treatment Barnyard grass (herbicidal effect) [9] | Pre-emergence treatment Bulrush (herbicidal effect) [10] | Pre-emergence treatment Barnyard grass (herbicidal effect) [11] | Phytotoxicity So (soybean plant (So)) | Phytotoxicity Wh (wheat (Wh)) | Herbicidal effect Am [12] | Herbicidal effect Vp [13] | Herbicidal effect Ec [14] | Herbicidal effect Ga [15] | Herbicidal effect At [16] | Herbicidal effect Xs [17] | Phytotoxicity So (soybean plant) | further results |
| --- | --- | --- | --- | --- | --- | --- | --- | --- | --- | --- | --- | --- | --- | --- | --- | --- | --- | --- | --- | --- | --- |
| CCCNC(=O)c1nc2ncccc2cc1C(=O)Nc1c(CC)ccc(Cl)c1CC [compound 361] | 5 (Weed-killing rate is 100%.) | 5 (Weed-killing rate is 100%.) | 5 (Weed-killing rate is 100%.) | 5 (Weed-killing rate is 100%.) | 5 (Weed-killing rate is 100%.) | 5 (Weed-killing rate is 100%.) | 5 (Weed-killing rate is 100%.) | 5 (Weed-killing rate is 100%.) | 5 (Weed-killing rate is 100%.) | 5 (Weed-killing rate is 100%.) | 5 (Weed-killing rate is 100%.) | 4 (Crop-killing rate is 90-99%.) | 4 (Crop-killing rate is 90-99%.) | 5 (Weed-killing rate is 100%.) | 5 (Weed-killing rate is 100%.) | 5 (Weed-killing rate is 100%.) | 5 (Weed-killing rate is 100%.) | 5 (Weed-killing rate is 100%.) | 5 (Weed-killing rate is 100%.) | 4 (Crop-killing rate is 90-99%.) | Phytotoxicity Wh (wheat): 5 (Crop-killing rate is 100%.) |
| CCCNC(=O)c1nc2ncccc2cc1C(=O)Nc1cccc(Cl)c1C [compound 375] | 5 (Weed-killing rate is 100%.) | 5 (Weed-killing rate is 100%.) | 5 (Weed-killing rate is 100%.) | 5 (Weed-killing rate is 100%.) | 5 (Weed-killing rate is 100%.) | 5 (Weed-killing rate is 100%.) | 5 (Weed-killing rate is 100%.) | 5 (Weed-killing rate is 100%.) | 5 (Weed-killing rate is 100%.) | 5 (Weed-killing rate is 100%.) | 5 (Weed-killing rate is 100%.) | 3 (Crop-killing rate is 70-89%.) | 3 (Crop-killing rate is 70-89%.) | 5 (Weed-killing rate is 100%.) | 5 (Weed-killing rate is 100%.) | 5 (Weed-killing rate is 100%.) | 5 (Weed-killing rate is 100%.) | 5 (Weed-killing rate is 100%.) | 5 (Weed-killing rate is 100%.) | 4 (Crop-killing rate is 90-99%.) | Phytotoxicity Wh (wheat): 4 (Crop-killing rate is 90-99%.) |
| CCCNC(=O)c1nc2c(cc1C(=O)Nc1c(CC)ccc(Cl)c1CC)CCCO2 [compound 414] | 5 (Weed-killing rate is 100%.) | 5 (Weed-killing rate is 100%.) | 5 (Weed-killing rate is 100%.) | 5 (Weed-killing rate is 100%.) | 5 (Weed-killing rate is 100%.) | 5 (Weed-killing rate is 100%.) | 5 (Weed-killing rate is 100%.) | 5 (Weed-killing rate is 100%.) | 5 (Weed-killing rate is 100%.) | 5 (Weed-killing rate is 100%.) | 5 (Weed-killing rate is 100%.) | 4 (Crop-killing rate is 90-99%.) | 5 (Crop-killing rate is 100%.) | 5 (Weed-killing rate is 100%.) | 5 (Weed-killing rate is 100%.) | 5 (Weed-killing rate is 100%.) | 5 (Weed-killing rate is 100%.) | 5 (Weed-killing rate is 100%.) | 5 (Weed-killing rate is 100%.) | 4 (Crop-killing rate is 90-99%.) | Phytotoxicity Wh (wheat): 5 (Crop-killing rate is 100%.) |
| CCc1ccc(Cl)c(CC)c1NC(=O)c1cc2c(nc1C(=O)NC1CCCC1)OCCC2 [compound 423] | 5 (Weed-killing rate is 100%.) | 5 (Weed-killing rate is 100%.) | 5 (Weed-killing rate is 100%.) | 5 (Weed-killing rate is 100%.) | 5 (Weed-killing rate is 100%.) | 5 (Weed-killing rate is 100%.) | 5 (Weed-killing rate is 100%.) | 5 (Weed-killing rate is 100%.) | 5 (Weed-killing rate is 100%.) | 5 (Weed-killing rate is 100%.) | 5 (Weed-killing rate is 100%.) | 4 (Crop-killing rate is 90-99%.) | 5 (Crop-killing rate is 100%.) | 5 (Weed-killing rate is 100%.) | 5 (Weed-killing rate is 100%.) | 5 (Weed-killing rate is 100%.) | 5 (Weed-killing rate is 100%.) | 5 (Weed-killing rate is 100%.) | 5 (Weed-killing rate is 100%.) | 4 (Crop-killing rate is 90-99%.) | Phytotoxicity Wh (wheat): 5 (Crop-killing rate is 100%.) |
| Cc1c(Cl)cccc1NC(=O)c1cc2c(nc1C(=O)NCC(C)C)OCCC2 [compound 431] | 4 (Weed-killing rate is 90-99%.) | 5 (Weed-killing rate is 100%.) | 5 (Weed-killing rate is 100%.) | 4 (Weed-killing rate is 90-99%.) | 5 (Weed-killing rate is 100%.) | 4 (Weed-killing rate is 90-99%.) | 5 (Weed-killing rate is 100%.) | 5 (Weed-killing rate is 100%.) | 5 (Weed-killing rate is 100%.) | 5 (Weed-killing rate is 100%.) | 5 (Weed-killing rate is 100%.) | 3 (Crop-killing rate is 70-89%.) | 3 (Crop-killing rate is 70-89%.) | 4 (Weed-killing rate is 90-99%.) | 5 (Weed-killing rate is 100%.) | 4 (Weed-killing rate is 90-99%.) | 4 (Weed-killing rate is 90-99%.) | 5 (Weed-killing rate is 100%.) | 4 (Weed-killing rate is 90-99%.) | 3 (Crop-killing rate is 70-89%.) | Phytotoxicity Wh (wheat): 4 (Crop-killing rate is 90-99%.) |
